Assay results taken from patent US7455861B2, “Angelicae sinensis extracts useful for treatment of cancers” (priority 2004, dated 2008).
Converted amounts (≈) assume the structure as drawn.

Key:
HUVEC [1] = test: Cytotoxicity (IC50) on HUVEC; type: cell-based, human; conditions: normal cells; for Cytotoxicity, IC50 HUVEC: Table 1; for IC50: Table 1, value in parentheses
Text: (§1) Human umbilical vascular endothelial cells (HUVECs) were purchased from Cascade Biologics, Inc. (USA). HUVECs were maintained in Medium 200 (Cascade Biologics, Inc. USA) supplemented with 10% fetal bovine serum (FBS; Gibco BRL) and low serum growth supplement (LSGS; Cascade Biologics, Inc. USA). Human dermal fibroblasts (HDFs) were purchased from Cascade Biologics, Inc. (USA). HDFs were maintained in Medium 106 (Cascade Biologics, Inc. USA) supplemented with 10% FBS and low serum growth supplement (LSGS; Cascade Biologics, Inc. USA). The human colon adenocarcinoma cell lines HT-29 were purchased from the ATCC (Manassas, Va. USA). HT-29 were maintained in Dubecco's Modified Eagle Medium (DMEM; Gibco) supplemented with 10% FBS and 100 ng/ml penicillin and […] streptomycin (Life Technologies, Inc., Grand Island, N.Y., USA). For the proliferation assay of cell in log growth (G1), the cells were harvested at 60-80% of confluence. 100 μl of cell suspensions were dispensed onto a Falcon 96-well plates The densities were 6×10^3 cells/well in Medium 200 (for HUVECs), and 9×10^3 cells/well in Medium 106 (for HDFs), and 5×10^3 cells/well in DMEM (for HT-29) supplemented with 10% FBS. The cells were pre-incubated for 24 hours in an incubator (Humidified atmosphere, e.g., at 37° C., 5% CO2). 10 μl of toxicant of various concentrations were added into the culture medium of the plate. The cell cultures were incubated for 48 hours. 10 μl of the Cell Counting Kit-8 (CCK-8; DOJINDO) solution were added and the cell cultures incubated for 1˜4 hours in the incubator. The absorbance was measured at 450 nm, using a microplate reader with a reference wavelength at 600 nm or over.
(§2) Human tumor cell lines (MCF-7, CL1-5, HT-29, Caco-2), human umbilical vascular endothelial cells (HUVEC), and human dermal fibroblasts (HDF) were tested for sensitivity on Angelicae sinensis extracts, ligustilide, n-butylidenephthalide and its derivatives in vitro. The DBTRG-05MG, BCM, HL-60 and J5 cells were grown in RPMI-1640 medium containing 10% fetal calf serum and 100 ng/ml penicillin and […] streptomycin at 37° C. in a humidified atmosphere with 5% CO2. The G5T/VGH, RG2, Ni 8, SVEC and Balb/3T3 cells were cultured in DMEM with 10% fetal calf serum and 100 ng/ml penicillin and […] streptomycin at 37° C. in 5% CO2. Mycoplasma infection of the culture cells was excluded by PCR screening methods before each experiment.
(§3) The effects on cell viability after the treatments with different concentrations of the Angelicae sinensis extracts or the active components purified therefrom were evaluated by modified MTT assay in triplicate. Briefly, the cells (5×10^3) were incubated into 96-well plates containing 100 μl of a growth medium. The cells were permitted to adhere for 24 hours, then treated with 100 μl of the herbal extracts or the active components dissolved in the medium. The control contained DMSO of <0.02% (v/v). After 24, 48 and 72 h incubation, the drug-containing medium was replaced by 50 μl of fresh medium, and cells in each well were incubated in 50 μl of 400 μg/ml MTT for 6-8 h. The medium and MTT were removed later and 100 μl of DMSO was added to each well and to the control, to dissolve the soluble components. Absorbance at 550 nm of the solutions was measured with MRX Microtiter Plate Luminometer (DYNEX, USA). The absorbance of untreated cells was considered as 100%. To evaluate the effects of the extracts or the active components on cell growth rate of GBM cells, 5×10^3 exponentially growing cells were treated with different concentrations for 24, 48, or 72 h. The cytotoxicity of each test substance was determined as an IC50 value, which represents the drug concentration required to cause 50% inhibition. All experiments in this study were performed in triplicate.

ETS-1 = test: RT-PCR of ETS-1 in HUVEC; type: cell-based, human
RG2 = test: Cytotoxicity (IC50) on RG2; type: cell-based, rat; conditions: for IC50: Table 1, value in parentheses; for Cytotoxicity, IC50 RG2: cancer cells, Table 1
Description: as §2, §3

HDF = test: Cytotoxicity (IC50) on HDF; type: cell-based, human; conditions: normal cells; for Cytotoxicity, IC50 HDF: Table 1; for IC50: Table 1, value in parentheses
Text: as §1, §2
as §3, with “To evaluate the effects of the extracts or the active components on cell growth rate of GBM cells, 5×10^3 exponentially growing cells were treated with different concentrations for 24, 48, or 72 h. The cytotoxicity of each test substance was determined as an IC50 value, which represents the drug concentration required to cause 50% inhibition. All experiments in this study were performed in triplicate.” left out

HUVEC [2] = test: Tube formation of HUVEC; type: cell-based, human
MMP-2 = test: RT-PCR of MMP-2 in HUVEC; type: cell-based, human
DBTRG-05MG = test: Cytotoxicity (IC50) on DBTRG-05MG; type: cell-based; conditions: Homo sapiens, read-out: Cytotoxicity (IC50) DBTRG-05MG
Description: as §2
as §3, with “All experiments in this study were performed in triplicate.” left out

G5T/VGH = test: Cytotoxicity (IC50) on G5T/VGH; type: cell-based; conditions: Homo sapiens; Table 2
Description: as §2
The effects on cell viability after the treatments with different concentrations of the Angelicae sinensis extracts or the active components purified therefrom were evaluated by modified MTT assay in triplicate. Briefly, the cells (5×10^3) were incubated into 96-well plates containing 100 μl of a growth medium. The cells were permitted to adhere for 24 hours, then treated with 100 μl of the herbal extracts or the active components dissolved in the medium. The control contained DMSO of <0.02% (v/v). […] Absorbance at 550 nm of the solutions was measured with MRX Microtiter Plate Luminometer (DYNEX, USA). The absorbance of untreated cells was considered as 100%. […]

[3] = Cytotoxicity (IC50) on HUVEC; type: cell-based, human; conditions: human
Text: as §1, §2, §3

brain tumor cell lines = test: Cytotoxicity (IC50) on brain tumor cell lines, pooled statement; type: cell-based; conditions: GBM tumors not sensitive
Description: as §3

Row | Structure (SMILES) | Cytotoxicity, IC50 HUVEC (HUVEC [1]) | IC50 (HUVEC [1]) | Inhibition RT-PCR ETS-1 (ETS-1) | IC50 (RG2) | Cytotoxicity, IC50 RG2 (RG2) | Cytotoxicity, IC50 HDF (HDF) | IC50 (HDF) | Inhibition Tube Formation (HUVEC [2]) | Inhibition RT-PCR MMP-2 (MMP-2) | IC50 (DBTRG-05MG) | IC50 (G5T/VGH) | IC50 [3] | IC50 GBM tumors (brain tumor cell lines)
1 | CCC/C=C1/OC(=O)c2ccccc21 [BP-E form] | >100 µg/mL | > 532 µM | 159.4 µg/mL | > 106 µM | >20 µg/mL | >100 µg/mL | > 532 µM |  |  |  |  |  | 
2 | CCC/C=C1\OC(=O)c2ccccc21 [BP-Z form] | >100 µg/mL | > 532 µM | 159.4 µg/mL | > 106 µM | >20 µg/mL | 65.25 µg/mL | 347 µM | 159.4 µg/mL | 531.3 µg/mL |  |  |  | 
3 | CC(=O)O[C@H]1C(=O)[C@@]2(C)[C@H]([C@H](OC(=O)c3ccccc3)[C@]3(O)C[C@H](OC(=O)[C@H](O)[C@@H](NC(=O)c4ccccc4)c4ccccc4)C(C)=C1C3(C)C)[C@]1(OC(C)=O)CO[C@@H]1C[C@@H]2O [Taxol, reference compound] |  |  |  |  |  |  |  |  |  | 61 ± 3.3 µg/mL (≈ 71.4 µM) | < 0.1 µg/mL | < 0.1 µg/mL | 
4 | O=NN(CCCl)C(=O)NCCCl [carmustin, reference compound] |  |  |  |  |  |  |  |  |  |  |  |  | > 100 µg/mL
